{"source": "patent US11408022B2", "about": "“Preparation method of anti-oxidation polypeptide” (Fu Zhou University, priority 2018, dated 2022)", "assay_type_in_all_cases": "biochemical", "key": {"[1]": {"test": "DPPH radical elimination activity", "settings": "1 mg/mL", "procedure": "1 mL of the sample of different concentrations was respectively well mixed with 1 mL of DPPH solution ([…], prepared using 95% ethanol). The mixed solutions were kept still in shadow at room temperature for 30 min, and then the absorbance was determined at the wavelength of 517 nm. 1 mL of 95% ethanol solution in replacement of the DDPPH solution was used to prepare the sample reference group; and the control group included 1 mL of DPPH solution and 1 mL of 95% ethanol solution. The elimination rate of DPPH radicals of the sample was calculated using the following equation: […]\nIn the equation, • Ai—absorbance of the sample group • Aj—absorbance of the sample reference group • A0—absorbance of the control group"}, "[2]": {"test": "Oxygen radical absorption capacity"}, "[3]": {"test": "ABTS radical elimination activity", "settings": "1 mg/mL", "procedure": "7 mM ABTS mother solution and 2.45 mM potassium peroxydisulfate solution were respectively prepared and stored for later use. The two solutions were mixed in a ratio of 1:1 before use. The mixed solution was placed still at room temperature for 16 h, and then diluted with phosphate buffer solution (5 mM, 7.4 pH) to obtain an ABTS radical solution with absorbance of 0.70±0.02 at the wavelength of 734 nm. The ABTS radical solution was mixed with samples of different concentrations and equal volume; after 10 min reaction at room temperature, the absorbance of the mixtures was determined at the wavelength of 734 nm; and finally, the mixtures were zero-set using the phosphate buffer solution (5 mM, 7.4 pH). In the control group, distilled water was used to replace samples. The elimination rate of ABTS radicals of the sample was calculated using the following equation: […]\nIn the equation: • Acontrol—absorbance of the control group • Asample—absorbance of the sample"}}, "note": "Where no end group is shown, it is not given here."}
{"substance": "GAAVAL [anti-oxidation polypeptide, hexapeptide isolated from alkali protease hydrolysate of black shark skins]", "values": [{"measurement": "Elimination rate of DPPH radicals", "setting": "[1]", "result": "67.00±0.24", "unit": "%"}, {"measurement": "Oxygen radical absorption capacity", "setting": "[2]", "result": "527.53±65.15", "unit": "μmol Trolox/g peptide"}, {"measurement": "Elimination rate of ABTS radicals", "setting": "[3]", "result": "64.12±0.20", "unit": "%"}]}
